Experimental data from ChEMBL document CHEMBL1144299, “Quinazolinethiones and quinazolinediones, novel inhibitors of inosine monophosphate dehydrogenase: synthesis and initial structure-activity relationships” (Bioorg Med Chem Lett, 2005).

Assays:
[1] = biological target: Inosine-5'-monophosphate dehydrogenase 2 (Homo sapiens, UniProt P12268); assay: In vitro inhibitory concentration against inosine-5'-monophosphate dehydrogenase
[2] = In vitro concentration required to inhibit peripheral blood mononuclear cell proliferation was determined; type: functional
[3] = Percent inhibition of inosine-5'-monophosphate dehydrogenase was determined at 1 uM concentration; type: functional
[4] = In vitro concentration required to inhibit peripheral blood mononuclear cell proliferation; Inactive; type: functional

IC50 [1] [nM]	inhibition [3] [%]	Compound	IC50 [2] [nM]	IC50 [4]
86	–	COc1cc2[nH]c(=O)n(CCn3ccnc3)c(=O)c2cc1-c1cnco1	2400	–
188	–	COc1cc2[nH]c(=O)n(CCc3ccncc3)c(=O)c2cc1-c1cnco1	1200	–
17	–	COc1cc2[nH]c(=S)n(C)c(=O)c2cc1-c1cnco1	1100	–
104	–	COc1cc2[nH]c(=O)n(C)c(=O)c2cc1-c1cnco1	4000	–
–	27	COc1cc2[nH]c(=S)n(C(C)C)c(=O)c2cc1-c1cnco1	–	–
1710	–	COc1cc2[nH]c(=S)n(-c3cccnc3)c(=O)c2cc1-c1cnco1	–	–
821	–	COc1cc2[nH]c(=S)n(CC(C)(C)C)c(=O)c2cc1-c1cnco1	–	–
297	–	COc1cc2[nH]c(=O)n(CCN3CCOCC3)c(=O)c2cc1-c1cnco1	9130	–
47	–	COc1cc2[nH]c(=O)n(CCc3c[nH]cn3)c(=O)c2cc1-c1cnco1	–	Not Active

Further lines, the molecule ahead of its results:

Compound	IC50 [1] [nM]	inhibition [3] [%]	IC50 [2] [nM]	IC50 [4]
COc1cc2[nH]c(=S)n(Cc3ccncc3)c(=O)c2cc1-c1cnco1	100	–	4100	–
COc1cc2nc(S)nc(O)c2cc1-c1cnco1	30	–	–	–
COc1cc2[nH]c(=S)n(CCc3ccccn3)c(=O)c2cc1-c1cnco1	91	–	1000	–
COc1cc2[nH]c(=S)n(CCCn3ccnc3)c(=O)c2cc1-c1cnco1	22	–	980	–
COc1cc2[nH]c(=S)n(CCN3CCOCC3)c(=O)c2cc1-c1cnco1	71	–	2760	–
COc1cc2[nH]c(=S)n(CCc3ccncc3)c(=O)c2cc1-c1cnco1	13	–	780	–
